In US9637473B2, “Acrylamide derivatives as antimalarial agents” (priority 2013, dated 2017):
pIC50: −log10 of the molar value.

system: P. Falciparum NF54; assay: Plasmodium falciparum in vitro assay ([3H]-hypoxanthine incorporation); assay type: cell-based; conditions: Plasmodium falciparum, Erythrocyte, P. Falciparum NF54, erythrocytic stages in human red blood cells, 50% human serum
How it was run: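 This in vitro antimalarial assay used P. falciparum erythrocytic stages cultured in human erythrocytes and measured [3H]-hypoxanthine incorporation. Radioactivity on the dried filters, placed in plastic foil with 10 mL scintillation fluid, was counted in a Betaplate liquid scintillation counter. Sigmoidal inhibition curves built in Microsoft Excel gave the IC50.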

Point of comparison: CN(c1ccncc1)c1ccc(CN(C(=O)/C=C/c2ccc(C(F)(F)F)cc2)[C@H]2CCN(C3CCCC3)C2)cc1 [Example 114, (E)-N-((S)-1-Cyclopentyl-pyrrolidin-3-yl)-N-[4-(methyl-pyridin-4-yl-amino)-benzyl]-3-(4-trifluoromethyl-phenyl)-acrylamide], pIC50 7.07. Against it:
- Cc1cc(Nc2ccc(CN(C(=O)/C=C/c3ccc(C(F)(F)F)cc3)C3CCN(C4CCCC4)CC3)cc2)ccn1 [Example 95, (E)-N-(1-Cyclopentyl-piperidin-4-yl)-N-[4-(2-methyl-pyridin-4-ylamino)-benzyl]-3-(4-trifluoromethyl-phenyl)-acrylamide] — 0.82 log units higher, 7.89
- CN(c1ccc(CN(C(=O)/C=C/c2ccc(C(F)(F)F)cc2)C2CCN(C3CCCC3)CC2)cc1)c1cccnc1 [Example 96, (E)-N-(1-Cyclopentyl-piperidin-4-yl)-N-[4-(methyl-pyridin-3-yl-amino)-benzyl]-3-(4-trifluoromethyl-phenyl)-acrylamide] — 0.62 log units lower, 6.45
- O=C(/C=C/c1ccc(C(F)(F)F)cc1)N(Cc1ccc(Nc2ccnc3cc(Cl)ccc23)cc1)C1CCN(C2CCCC2)CC1 [Example 97, (E)-N-[4-(7-Chloro-quinolin-4-ylamino)-benzyl]-N-(1-cyclopentyl-piperidin-4-yl)-3-(4-trifluoromethyl-phenyl)-acrylamide] — within 0.2 log units, 6.92
- Cc1ccc(Nc2ccc(CN(C(=O)/C=C/c3ccc(C(F)(F)F)cc3)C3CCN(C4CCCC4)CC3)cc2)nc1 [Example 98, (E)-N-(1-Cyclopentyl-piperidin-4-yl)-N-[4-(5-methyl-pyridin-2-ylamino)-benzyl]-3-(4-trifluoromethyl-phenyl)-acrylamide] — 0.64 log units lower, 6.43
- COc1ccc2nc(C)cc(Nc3ccc(CN(C(=O)/C=C/c4ccc(C(F)(F)F)cc4)C4CCN(C5CCCC5)CC4)cc3)c2c1 [Example 100, (E)-N-(1-Cyclopentyl-piperidin-4-yl)-N-[4-(6-methoxy-2-methyl-quinolin-4-ylamino)-benzyl]-3-(4-trifluoromethyl-phenyl)-acrylamide] — 0.61 log units higher, 7.68
- CN(c1ccncc1)c1ccc(CN(C(=O)/C=C/c2ccc(C(F)(F)F)cc2)C2CN(C3CCCC3)C2)cc1 [Example 102, (E)-N-(1-Cyclopentyl-azetidin-3-yl)-N-[4-(methyl-pyridin-4-yl-amino)-benzyl]-3-(4-trifluoromethyl-phenyl)-acrylamide] — within 0.2 log units, 7.09
- O=C(/C=C/c1ccc(C(F)(F)F)cc1)N(Cc1ccc(Nc2ccncc2)nc1)C1CCN(C2CCCC2)CC1 [Example 103, (E)-N-(1-Cyclopentyl-piperidin-4-yl)-N-[6-(pyridin-4-ylamino)-pyridin-3-ylmethyl]-3-(4-trifluoromethyl-phenyl)-acrylamide] — 0.29 log units higher, 7.36
- CN(c1ccncc1)c1ccc(CN(C(=O)/C=C/c2ccc(C(F)(F)F)cc2)C2CCN(C3CCCC3)CC2)cn1 [Example 104, (E)-N-(1-Cyclopentyl-piperidin-4-yl)-N-[6-(methyl-pyridin-4-yl-amino)-pyridin-3-ylmethyl]-3-(4-trifluoromethyl-phenyl)-acrylamide] — within 0.2 log units, 7.22
- CN1CCC(Nc2ccc(CN(C(=O)/C=C/c3ccc(C(F)(F)F)cc3)C3CCN(C4CCCC4)CC3)cn2)CC1 [Example 105, (E)-N-(1-Cyclopentyl-piperidin-4-yl)-N-[6-(1-methyl-piperidin-4-ylamino)-pyridin-3-ylmethyl]-3-(4-trifluoromethyl-phenyl)-acrylamide] — 0.25 log units lower, 6.82
- CN1CCC(N(C)c2ccc(CN(C(=O)/C=C/c3ccc(C(F)(F)F)cc3)C3CCN(C4CCCC4)CC3)cn2)CC1 [Example 106, (E)-N-(1-Cyclopentyl-piperidin-4-yl)-N-{6-[methyl-(1-methyl-piperidin-4-yl)-amino]-pyridin-3-ylmethyl}-3-(4-trifluoromethyl-phenyl)-acrylamide] — 0.61 log units lower, 6.46
- O=C(/C=C/c1ccc(C(F)(F)F)cc1)N(Cc1ccc(Nc2ccncn2)nc1)C1CCN(C2CCCC2)CC1 [Example 107, (E)-N-(1-Cyclopentyl-piperidin-4-yl)-N-[6-(pyrimidin-4-ylamino)-pyridin-3-ylmethyl]-3-(4-trifluoromethyl-phenyl)-acrylamide] — 0.69 log units lower, 6.38
- Cc1nccc(Nc2ccc(CN(C(=O)/C=C/c3ccc(C(F)(F)F)cc3)C3CCN(C4CCCC4)CC3)cn2)n1 [Example 108, (E)-N-(1-Cyclopentyl-piperidin-4-yl)-N-[6-(2-methyl-pyrimidin-4-ylamino)-pyridin-3-ylmethyl]-3-(4-trifluoromethyl-phenyl)-acrylamide] — 0.70 log units lower, 6.37
- Cc1cc(Nc2ccc(CN(C(=O)/C=C/c3ccc(C(F)(F)F)cc3)C3CCN(C4CCCC4)CC3)cn2)ncn1 [Example 109, (E)-N-(1-Cyclopentyl-piperidin-4-yl)-N-[6-(6-methyl-pyrimidin-4-ylamino)-pyridin-3-ylmethyl]-3-(4-trifluoromethyl-phenyl)-acrylamide] — 0.66 log units lower, 6.41
- CN1CCC(N2CCC(N(Cc3ccc(Nc4ccncc4)nc3)C(=O)/C=C/c3ccc(C(F)(F)F)cc3)CC2)CC1 [Example 110, (E)-N-(1′-Methyl-[1,4′]bipiperidinyl-4-yl)-N-[6-(pyridin-4-ylamino)-pyridin-3-ylmethyl]-3-(4-trifluoromethyl-phenyl)-acrylamide] — 0.30 log units lower, 6.77
- Cc1cc(Nc2ccc(CN(C(=O)/C=C/c3ccc(C(F)(F)F)cc3)C3CCN(C4CCN(C)CC4)CC3)cn2)ccn1 [Example 111, (E)-N-(1′-Methyl-[1,4′]bipiperidinyl-4-yl)-N-[6-(2-methyl-pyridin-4-ylamino)-pyridin-3-ylmethyl]-3-(4-trifluoromethyl-phenyl)-acrylamide] — 0.29 log units lower, 6.78
- CN1CCC(N2CCC(N(Cc3ccc(N(C)c4ccncc4)nc3)C(=O)/C=C/c3ccc(C(F)(F)F)cc3)CC2)CC1 [Example 112, (E)-N-(1′-Methyl-[1,4′]bipiperidinyl-4-yl)-N-[6-(methyl-pyridin-4-yl-amino)-pyridin-3-ylmethyl]-3-(4-trifluoromethyl-phenyl)-acrylamide] — 0.34 log units higher, 7.41
- CN(c1ccncc1)c1ccc(CN(C(=O)/C=C/c2ccc(C(F)(F)F)cc2)[C@@H]2CCN(C3CCCC3)C2)cc1 [Example 113, (E)-N-((R)-1-Cyclopentyl-pyrrolidin-3-yl)-N-[4-(methyl-pyridin-4-yl-amino)-benzyl]-3-(4-trifluoromethyl-phenyl)-acrylamide] — within 0.2 log units, 7.11
- CN1CCC(N2CCC(N(Cc3ccc(Nc4ccncc4)cc3)C(=O)/C=C/c3ccc(C(F)(F)F)cc3)CC2)CC1 [Example 115, (E)-N-(1′-Methyl-[1,4′]bipiperidinyl-4-yl)-N-[4-(pyridin-4-ylamino)-benzyl]-3-(4-trifluoromethyl-phenyl)-acrylamide] — within 0.2 log units, 7.09
- Cc1cc(Nc2ccc(CN(C(=O)/C=C/c3ccc(C(F)(F)F)cc3)C3CCN(C4CCN(C)CC4)CC3)cc2)ccn1 [Example 116, (E)-N-(1′-Methyl-[1,4′]bipiperidinyl-4-yl)-N-[4-(2-methyl-pyridin-4-ylamino)-benzyl]-3-(4-trifluoromethyl-phenyl)-acrylamide] — within 0.2 log units, 7.15
- Cc1cc(Nc2ccc(CN(C(=O)/C=C/c3ccc(Cl)cc3)C3CCN(C4CCN(C)CC4)CC3)cc2)ccn1 [Example 117, (E)-3-(4-Chloro-phenyl)-N-(1′-methyl-[1,4′]bipiperidinyl-4-yl)-N-[4-(2-methyl-pyridin-4-ylamino)-benzyl]-acrylamide] — 0.55 log units lower, 6.52
